Test results as given in ChEMBL document CHEMBL1201862, “PubChem BioAssay data set” (2004).
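In this assay, cells in 96-well plates receive the compound at five concentrations for 48 hours. Endpoints are linearly interpolated between the surrounding concentrations. GI50 marks 50% less growth.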 Active and inactive are the calls of the source. No stated cut-off is given here; in the data, active = GI50 up to about 1.1 µM and inactive = higher.

Legend:
Assay in all cases: growth of human tumour cells (NCI), 48 h
LOX IMVI = system: LOX IMVI
SF-268 = system: SF-268
MOLT-4 = system: MOLT-4
M14 = system: M14
DU-145 = system: DU-145
HCT-116 = system: HCT-116
SNB-19 = system: SNB-19
OVCAR-5 = system: OVCAR-5
RXF 393 = system: RXF 393
OVCAR-8 = system: OVCAR-8
SNB-75 = system: SNB-75
NCI-H23 = system: NCI-H23
DLD-1 = system: DLD-1
K562 = system: K562
MDA-MB-231 = system: MDA-MB-231
SK-MEL-2 = system: SK-MEL-2
SF-539 = system: SF-539
MDA-N = system: MDA-N
COLO 205 = system: COLO 205
T47D = system: T47D

CNC(=O)N(C)/N=N/CCCl
GI50 (LOX IMVI): > 100 µM (inactive)
GI50 (SF-268): > 100 µM (inactive)
GI50 (MOLT-4): > 100 µM (inactive)
GI50 (M14): > 100 µM (inactive)
GI50 (DU-145): > 100 µM (inactive)
GI50 (HCT-116): > 100 µM (inactive)
GI50 (SNB-19): > 100 µM (inactive)
GI50 (OVCAR-5): > 100 µM (inactive)
GI50 (RXF 393): > 100 µM (inactive)
GI50 (OVCAR-8): > 100 µM (inactive)
GI50 (SNB-75): > 100 µM (inactive)
GI50 (NCI-H23): > 100 µM (inactive)
GI50 (DLD-1): > 100 µM (inactive)
GI50 (K562): > 100 µM (inactive)
GI50 (MDA-MB-231): > 100 µM (inactive)
GI50 (SK-MEL-2): > 100 µM (inactive)
GI50 (SF-539): > 100 µM (inactive)
GI50 (MDA-N): > 100 µM (inactive)
GI50 (COLO 205): > 100 µM (inactive)
GI50 (T47D): > 100 µM (inactive)

O=C(Nc1ccccc1-c1nc2ccccc2[nH]c1=O)c1ccccc1
GI50 (LOX IMVI): 24.3 µM (inactive)
GI50 (SF-268): 22.9 µM (inactive)
GI50 (MOLT-4): > 100 µM (inactive)
GI50 (M14): 59.6 µM (inactive)
GI50 (HCT-116): 20.1 µM (inactive)
GI50 (SNB-19): 24.2 µM (inactive)
GI50 (OVCAR-5): 63.4 µM (inactive)
GI50 (RXF 393): 21.2 µM (inactive)
GI50 (OVCAR-8): 22.9 µM (inactive)
GI50 (SNB-75): 13.8 µM (inactive)
GI50 (NCI-H23): 33.7 µM (inactive)
GI50 (DLD-1): 29.2 µM (inactive)
GI50 (K562): > 100 µM (inactive)
GI50 (SK-MEL-2): 23.5 µM (inactive)
GI50 (SF-539): 20.6 µM (inactive)
GI50 (COLO 205): > 100 µM (inactive)

COC(=O)/C(=N\O)C(C(=O)C=C(C)C)C(=O)C(=O)Nc1ccccc1C (stereo not drawn)
GI50 (LOX IMVI): > 100 µM (inactive)
GI50 (SF-268): > 100 µM (inactive)
GI50 (MOLT-4): > 100 µM (inactive)
GI50 (M14): > 100 µM (inactive)
GI50 (HCT-116): > 100 µM (inactive)
GI50 (SNB-19): > 100 µM (inactive)
GI50 (OVCAR-5): > 100 µM (inactive)
GI50 (RXF 393): > 100 µM (inactive)
GI50 (OVCAR-8): > 100 µM (inactive)
GI50 (SNB-75): > 100 µM (inactive)
GI50 (NCI-H23): > 100 µM (inactive)
GI50 (DLD-1): > 100 µM (inactive)
GI50 (K562): > 100 µM (inactive)
GI50 (SK-MEL-2): > 100 µM (inactive)
GI50 (SF-539): > 100 µM (inactive)
GI50 (COLO 205): > 100 µM (inactive)

CSc1ccc2c(cc1=O)[C@@H](NC(=O)c1ccc(Cl)cc1)CCc1cc(O)c(O)c(O)c1-2
GI50 (LOX IMVI): 18.6 µM (inactive)
GI50 (SF-268): > 100 µM (inactive)
GI50 (MOLT-4): 26.3 µM (inactive)
GI50 (M14): 34.7 µM (inactive)
GI50 (HCT-116): 18.2 µM (inactive)
GI50 (SNB-19): 49.5 µM (inactive)
GI50 (OVCAR-5): > 100 µM (inactive)
GI50 (RXF 393): > 100 µM (inactive)
GI50 (OVCAR-8): 50 µM (inactive)
GI50 (SNB-75): 27.7 µM (inactive)
GI50 (NCI-H23): 32.1 µM (inactive)
GI50 (DLD-1): 26.1 µM (inactive)
GI50 (K562): 18.2 µM (inactive)
GI50 (SK-MEL-2): > 100 µM (inactive)
GI50 (SF-539): 29.8 µM (inactive)
GI50 (COLO 205): 62.5 µM (inactive)

Cc1cc2c(ccc3c(C)cc(=O)oc32)o1
GI50 (LOX IMVI): > 100 µM (inactive)
GI50 (SF-268): > 81.3 µM (inactive)
GI50 (MOLT-4): > 100 µM (inactive)
GI50 (M14): > 100 µM (inactive)
GI50 (HCT-116): > 100 µM (inactive)
GI50 (SNB-19): > 100 µM (inactive)
GI50 (OVCAR-5): > 100 µM (inactive)
GI50 (RXF 393): 78.3 µM (inactive)
GI50 (OVCAR-8): > 100 µM (inactive)
GI50 (SNB-75): 35.6 µM (inactive)
GI50 (NCI-H23): > 100 µM (inactive)
GI50 (DLD-1): > 100 µM (inactive)
GI50 (K562): > 100 µM (inactive)
GI50 (SK-MEL-2): > 100 µM (inactive)
GI50 (SF-539): > 100 µM (inactive)
GI50 (COLO 205): > 100 µM (inactive)

C/C1=C\[C@H](C)C[C@H](C)OC(=O)C[C@H](c2ccc(O)cc2)NC(=O)[C@@H](Cc2c(Br)[nH]c3ccccc23)N(C)C(=O)[C@H](C)NC(=O)[C@@H](C)C1 [JASPAMIDE]
GI50 (LOX IMVI): 0.122 µM (active)
GI50 (SF-268): 0.139 µM (active)
GI50 (MOLT-4): 0.682 µM (active)
GI50 (M14): 0.211 µM (active)
GI50 (DU-145): 0.0594 µM (active)
GI50 (HCT-116): 0.196 µM (active)
GI50 (SNB-19): 0.213 µM (active)
GI50 (OVCAR-5): 0.457 µM (active)
GI50 (RXF 393): 0.0369 µM (active)
GI50 (OVCAR-8): 0.381 µM (active)
GI50 (SNB-75): 0.084 µM (active)
GI50 (NCI-H23): 0.467 µM (active)
GI50 (DLD-1): 0.843 µM (active)
GI50 (K562): 0.667 µM (active)
GI50 (MDA-MB-231): 0.0287 µM (active)
GI50 (SF-539): 0.0249 µM (active)
GI50 (MDA-N): 0.0834 µM (active)
GI50 (COLO 205): 0.207 µM (active)
GI50 (T47D): 0.0512 µM (active)
